# Measurements: patent US7589089B2, “Inhibitors for GlyT-1” (Hoffmann-La Roche Inc., priority 2006, dated 2009)
# Target: T1, mGlyT-1b (Mus musculus, UniProt P28571)
# T1 construct: host or cells: Flp-in-CHO
# T1 sequence (P28571 1-651 isoform P28571-2): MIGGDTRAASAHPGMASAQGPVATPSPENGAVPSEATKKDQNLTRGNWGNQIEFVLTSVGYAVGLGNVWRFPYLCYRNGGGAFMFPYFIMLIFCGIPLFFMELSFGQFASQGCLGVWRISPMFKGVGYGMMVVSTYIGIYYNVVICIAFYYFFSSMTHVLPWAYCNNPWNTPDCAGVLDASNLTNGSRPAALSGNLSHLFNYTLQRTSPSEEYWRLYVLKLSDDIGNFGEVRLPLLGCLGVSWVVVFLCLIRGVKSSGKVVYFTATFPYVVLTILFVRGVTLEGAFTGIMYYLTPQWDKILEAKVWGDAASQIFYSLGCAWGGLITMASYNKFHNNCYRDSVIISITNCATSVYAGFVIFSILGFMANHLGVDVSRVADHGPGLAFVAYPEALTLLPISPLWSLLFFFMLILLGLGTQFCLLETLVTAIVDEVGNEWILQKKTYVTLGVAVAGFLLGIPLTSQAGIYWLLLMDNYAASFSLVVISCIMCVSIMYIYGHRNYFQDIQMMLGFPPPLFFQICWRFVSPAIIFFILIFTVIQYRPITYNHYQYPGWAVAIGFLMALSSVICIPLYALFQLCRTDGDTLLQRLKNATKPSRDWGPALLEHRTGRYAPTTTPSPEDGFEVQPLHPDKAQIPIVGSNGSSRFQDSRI
# Assay: Glycine Uptake Inhibition Assay (mGlyT-1b)
# Assay type: cell-based
# Procedure: DMEM complete medium: Nutrient mixture F-12 (Gibco Life-technologies), fetal bovine serum (FBS) 5%, (Gibco life technologies), Penicillin/Streptomycin 1% (Gibco life technologies), Hygromycin 0.6 mg/ml (Gibco life technologies), Glutamine 1 mM Gibco life technologies)
# Uptake buffer (UB): 150 mM NaCl, 10 mM Hepes-Tris, pH 7.4, 1 mM CaCl2, 2.5 mM KCl, 2.5 mM MgSO4, 10 mM (+) D-glucose.
# Flp-in™-CHO (Invitrogen Cat n° R758-07) cells stably transfected with mGlyT1b cDNA.
# Glycine Uptake Inhibition Assay (mGlyT-1b)
# On day 1 mammalian cells, (Flp-in™-CHO), transfected with mGlyT-1b cDNA, were plated at the density of 40,000 cells/well in complete F-12 medium, without hygromycin in 96-well culture plates. On day 2, the medium was aspirated and the cells were washed twice with uptake buffer (UB). The cells were then incubated for 20 min at 22° C. with either (i) no potential competitor, (ii) 10 mM non-radioactive glycine, (iii) a concentration of a potential inhibitor. A range of concentrations of the potential inhibitor was used to generate data for calculating the concentration of inhibitor resulting in 50% of the effect (e.g. IC50, the concentration of the competitor inhibiting glycine uptake of 50%). A solution was then immediately added containing [^3H]-glycine 60 nM (11-16 Ci/mmol) and 25 μM non-radioactive glycine. The plates were incubated with gentle shaking and the reaction was stopped by aspiration of the mixture and washing (three times) with ice-cold UB. The cells were lysed with scintillation liquid, shaken 3 hours and the radioactivity in the cells was counted using a scintillation counter.
row,Structure (SMILES),IC50 [µM]
1,"O=C(CN(C(=O)c1ccc(OC(F)(F)F)cc1)c1ccccc1)Nc1ccc(Cl)c(Cl)c1 [Example 114, N-[(3,4-Dichloro-phenylcarbamoyl)-methyl]-N-phenyl-4-trifluoromethoxy-benzamide]",0.091
2,"O=C(CN(Cc1ccc(F)c(F)c1)C(=O)c1ccc(Cl)cc1)Nc1cccc(Cl)c1 [Example 2, 4-Chloro-N-[(3-chloro-phenylcarbamoyl)-methyl]-N-(3,4-difluoro-benzyl)-benzamide]",0.265
3,"O=C(CN(Cc1ccccc1Cl)C(=O)c1ccc(Cl)cc1)Nc1ccc(F)c(Cl)c1 [Example 74, 4-Chloro-N-(2-chloro-benzyl)-N-[(3-chloro-4-fluoro-phenylcarbamoyl)-methyl]-benzamide]",0.142
4,"O=C(CN(Cc1ccccc1F)C(=O)c1ccc(Cl)cc1)Nc1cccc(Cl)c1 [Example 9, 4-Chloro-N-[(3-chloro-phenylcarbamoyl)-methyl]-N-(2-fluoro-benzyl)-benzamide]",0.074
5,"N#Cc1cccc(C(=O)N(CC(=O)Nc2ccc(Cl)c(Cl)c2)c2ccccc2)c1 [Example 31, 3-Cyano-N-[(3,4-dichloro-phenylcarbamoyl)-methyl]-N-phenyl-benzamide]",0.35

# More lines, in order of falling IC50, values ahead:
row,IC50 [µM],Structure (SMILES)
1,0.182,"COc1ccc(C(=O)N(CC(=O)Nc2ccc(F)c(Cl)c2)c2ccccc2)cc1 [Example 108, N-[(3-Chloro-4-fluoro-phenylcarbamoyl)-methyl]-4-methoxy-N-phenyl-benzamide]"
2,0.107,"O=C(CN(Cc1ccccc1Cl)C(=O)c1ccc(OC(F)(F)F)cc1)Nc1cccc(F)c1 [Example 60, N-(2-Chloro-benzyl)-N-[(3-fluoro-phenylcarbamoyl)-methyl]-4-trifluoromethoxy-benzamide]"
3,0.074,"O=C(CN(Cc1cccc(F)c1F)C(=O)c1ccc(Cl)cc1)Nc1cccc(Cl)c1 [Example 4, 4-Chloro-N-[(3-chloro-phenylcarbamoyl)-methyl]-N-(2,3-difluoro-benzyl)-benzamide]"
